Data: paper PMC3865801 (Journal of Medicinal Chemistry, 2013)
“Also recorded” adds a separate entry of the source.

biological target: T1, purified recombinant perforin (Mus musculus, UniProt P10820); test: cell-based; type: cell-based; conditions: lysis of Jurkat cells by purified recombinant perforin, 51Cr release, 0.1% BSA; average of at least three determinations
T1 sequence (P10820 21-554): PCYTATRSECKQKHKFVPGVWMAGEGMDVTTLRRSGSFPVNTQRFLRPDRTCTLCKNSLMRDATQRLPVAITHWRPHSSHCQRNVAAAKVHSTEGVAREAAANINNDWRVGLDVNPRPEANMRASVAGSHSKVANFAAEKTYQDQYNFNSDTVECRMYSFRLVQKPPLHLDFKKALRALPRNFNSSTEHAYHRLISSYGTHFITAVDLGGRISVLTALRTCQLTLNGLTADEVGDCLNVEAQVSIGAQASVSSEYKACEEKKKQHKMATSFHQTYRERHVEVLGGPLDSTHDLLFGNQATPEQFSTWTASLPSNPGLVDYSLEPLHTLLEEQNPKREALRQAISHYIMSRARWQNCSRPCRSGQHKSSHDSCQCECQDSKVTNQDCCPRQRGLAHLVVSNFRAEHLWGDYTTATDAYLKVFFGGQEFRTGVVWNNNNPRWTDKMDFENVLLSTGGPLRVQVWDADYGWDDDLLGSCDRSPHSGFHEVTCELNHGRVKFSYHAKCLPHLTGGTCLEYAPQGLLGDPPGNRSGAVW
Protocol: The ability of the compounds to inhibit the lysis of nucleated (Jurkat T lymphoma) cells in the presence of 0.1% BSA was measured by release of ^51Cr label. Jurkat target cells were labeled by incubation in medium with 100 μCi ^51Cr for 1 h. The cells were then washed three times to remove unincorporated isotope and resuspended at 1 × 10^5 cells per milliliter in RPMI buffer supplemented with 0.1% BSA. […] Each data point was performed in triplicate, and an IC50 was calculated from the range of concentrations described above.

In the case of `O=C1NC(=S)N/C1=C/c1ccc(-c2ccccc2)s1` [compound 43], the “inhibition of Jurkat cell lysis, IC50” value is reported as “no detectable activity”.
For `O=C1NC(=S)N/C1=C/c1ccc(-c2ccc3c(c2)CN(CCN2CCOCC2)C3=O)s1` [compound 130, (E,Z)-2-(2-Morpholinoethyl)-5-(5-((5-oxo-2-thioxoimidazolidin-4-ylidene)methyl)thiophen-2-yl)isoindolin-1-one], the “inhibition of Jurkat cell lysis, IC50” value was “not reproducible; also recorded: variable”.

same assay, conditions: lysis of Jurkat cells by purified recombinant perforin, 51Cr release, 0.1% BSA; average of at least three determinations; read-out: inhibition of Jurkat cell lysis, IC50

Going from `O=C1NC(=S)N/C1=C/c1ccc(-c2ccccc2)s1` [compound 43] to `O=C1NC(=S)N/C1=C/c1ccc(-c2cccc(Cl)c2)s1` [compound 45], the IC50 falls from greater than 20 µM to 7.19 µM.

First: O=C1NC(=S)N/C1=C/c1ccc(-c2ccccc2Cl)s1 [compound 44]
Second: O=C1NC(=S)N/C1=C/c1ccc(-c2ccc(Cl)cc2)s1 [compound 46]
The IC50 of the first is higher: greater than 20 µM for the first, 5.22 µM for the second. The second is the more potent here.

Compared with `O=C1NC(=S)N/C1=C/c1ccc(-c2cccc(F)c2)s1` [compound 47], `O=C1NC(=S)N/C1=C/c1ccc(-c2ccc(F)cc2)s1` [compound 48] is 1.6-fold lower in IC50: 10.8 µM for the first, 6.69 µM for the second. The second is the more potent here.

`O=C1NC(=S)N/C1=C/c1ccc(-c2ccc(F)c(F)c2)s1` [compound 49] and `O=C1NC(=S)N/C1=C/c1ccc(-c2ccc(Cl)c(C(F)(F)F)c2)s1` [compound 54] are within 1.5-fold of each other in IC50: 4.59 µM for the first, 3.09 µM for the second.

`O=C1NC(=S)N/C1=C/c1ccc(-c2cccc(C(F)(F)F)c2)s1` [compound 50] and `O=C1NC(=S)N/C1=C/c1ccc(-c2ccc(C(F)(F)F)cc2)s1` [compound 51] are within 1.5-fold of each other in IC50: 5.66 µM for the first, 4.66 µM for the second.

Compared with `N#Cc1cccc(-c2ccc(/C=C3/NC(=S)NC3=O)s2)c1` [compound 52], `NC(=O)c1cccc(-c2ccc(/C=C3/NC(=S)NC3=O)s2)c1` [compound 60] is 12-fold lower in IC50: 9.68 µM for the first, 0.79 µM for the second. The second is the more potent here.

Going from `O=C1NC(=S)N/C1=C/c1ccc(-c2ccc(O)cc2)s1` [compound 53] to `O=C1NC(=S)N/C1=C/c1ccc(-c2ccc(Br)cc2)s1` [compound 55], the IC50 falls from 7.72 µM to 1.69 µM (4.6-fold).

`CSc1ccc(-c2ccc(/C=C3/NC(=S)NC3=O)s2)cc1` [compound 56] and `CC(=O)c1ccc(-c2ccc(/C=C3/NC(=S)NC3=O)s2)cc1` [compound 57] are within 1.5-fold of each other in IC50: 1.15 µM for the first, 1.67 µM for the second.

Going from `CC(=O)OCc1ccc(-c2ccc(/C=C3/NC(=S)NC3=O)s2)cc1` [compound 58, (E,Z)-4-(5-((5-Oxo-2-thioxoimidazolidin-4-ylidene)methyl)thiophen-2-yl)benzyl Acetate] to `NC(=O)c1ccc(-c2ccc(/C=C3/NC(=S)NC3=O)s2)cc1` [compound 61], the IC50 falls from 3.04 µM to 1.56 µM (1.9-fold).

Going from `COC(=O)c1ccc(-c2ccc(/C=C3/NC(=S)NC3=O)s2)cc1` [compound 59] to `CNC(=O)c1ccc(-c2ccc(/C=C3/NC(=S)NC3=O)s2)cc1` [compound 67, (E,Z)-N-Methyl-4-(5-((5-oxo-2-thioxoimidazolidin-4-ylidene)methyl)thiophen-2-yl)benzamide], the IC50 rises from 1.62 µM to 4.53 µM (2.8-fold). The first is the more potent here.

Going from `COC(=O)c1ccc(-c2ccc(/C=C3/NC(=S)NC3=O)s2)cc1C` [compound 62] to `CC(=O)c1cn(C)c2ccc(-c3ccc(/C=C4\NC(=S)NC4=O)s3)cc12` [compound 178], the IC50 rises from 3.03 µM to 5.3 µM (1.7-fold). The first is the more potent here.

Going from `CS(=O)(=O)c1ccc(-c2ccc(/C=C3/NC(=S)NC3=O)s2)cc1` [compound 63] to `CS(=O)(=O)Nc1ccc(-c2ccc(/C=C3/NC(=S)NC3=O)s2)cc1` [compound 64], the IC50 falls from 13.8 µM to 7.7 µM (1.8-fold). The second is the more potent here.

`O=C1NC(=S)N/C1=C/c1ccc(-c2cccnc2)s1` [compound 65] and `O=C1NC(=S)N/C1=C/c1ccc(-c2ccncc2)s1` [compound 66] are within 1.5-fold of each other in IC50: 12.9 µM for the first, 10.1 µM for the second.

`CN(C)C(=O)c1ccc(-c2ccc(/C=C3/NC(=S)NC3=O)s2)cc1` [compound 68] and `CC(O)CNC(=O)c1ccc(-c2ccc(/C=C3/NC(=S)NC3=O)s2)cc1` (centres unmarked) [compound 74] are within 1.5-fold of each other in IC50: 6.93 µM for the first, 6.5 µM for the second.

`O=C1NC(=S)N/C1=C/c1ccc(-c2ccc(C(=O)N3CCOCC3)cc2)s1` [compound 69] and `O=C1NC(=S)N/C1=C/c1ccc(-c2ccc(C(=O)NCCN3CCOCC3)cc2)s1` [compound 70] cannot be ordered by IC50: greater than 20 µM for the first, greater than 20 µM for the second.

First: O=C1NC(=S)N/C1=C/c1ccc(-c2ccc(C(=O)NCCCN3CCOCC3)cc2)s1 [compound 71]
Second: O=C1NC(=S)N/C1=C/c1ccc(-c2ccc(C(=O)NCCCO)cc2)s1 [compound 73]
The IC50 of the first is 1.9-fold higher: 8.13 µM for the first, 4.35 µM for the second. The second is the more potent here.

`O=C1NC(=S)N/C1=C/c1ccc(-c2ccc(C(=O)NCCO)cc2)s1` [compound 72] and `O=C1NC(=S)N/C1=C/c1ccc(-c2ccc(C(=O)NCC(O)CO)cc2)s1` (centres unmarked) [compound 75] are within 1.5-fold of each other in IC50: 3.64 µM for the first, 2.44 µM for the second.

First: CCN1Cc2cc(-c3ccc(/C=C4/NC(=S)NC4=O)s3)ccc2C1=O [compound 120]
Second: CCCN1Cc2cc(-c3ccc(/C=C4/NC(=S)NC4=O)s3)ccc2C1=O [compound 121]
The IC50 of the first is 2.5-fold lower: 0.6 µM for the first, 1.52 µM for the second.

Going from `CCCCN1Cc2cc(-c3ccc(/C=C4/NC(=S)NC4=O)s3)ccc2C1=O` [compound 122] to `CN(C)CCCN1Cc2cc(-c3ccc(/C=C4/NC(=S)NC4=O)s3)ccc2C1=O` [compound 131, (E,Z)-2-(3-(Dimethylamino)propyl)-5-(5-((5-oxo-2-thioxoimidazolidin-4-ylidene)methyl)thiophen-2-yl)isoindolin-1-one], the IC50 rises from 1.18 µM to greater than 20 µM. The first is the more potent here.

Compared with `CC(C)N1Cc2cc(-c3ccc(/C=C4/NC(=S)NC4=O)s3)ccc2C1=O` [compound 123], `CC(=O)N1Cc2cc(-c3ccc(/C=C4/NC(=S)NC4=O)s3)ccc2C1=O` [compound 128] is 4.8-fold lower in IC50: 4.42 µM for the first, 0.93 µM for the second. The second is the more potent here.

`CC(=O)OCCN1Cc2cc(-c3ccc(/C=C4/NC(=S)NC4=O)s3)ccc2C1=O` [compound 124, (E,Z)-2-(1-Oxo-5-(5-((5-oxo-2-thioxoimidazolidin-4-ylidene)methyl)thiophen-2-yl)isoindolin-2-yl)ethyl Acetate] and `O=C1NC(=S)N/C1=C/c1ccc(-c2ccc3c(c2)CN(CC(O)CO)C3=O)s1` (centres unmarked) [compound 127] are within 1.5-fold of each other in IC50: 1.17 µM for the first, 1.26 µM for the second.

`O=C1NC(=S)N/C1=C/c1ccc(-c2ccc3c(c2)CN(CCCN2CCCCC2)C3=O)s1` [compound 132] and `O=C1NC(=S)N/C1=C/c1ccc(-c2ccc3c(c2)CN(CCCN2CCCC2)C3=O)s1` [compound 134] are within 1.5-fold of each other in IC50: 11.8 µM for the first, 8.93 µM for the second.

First: CN1CCN(CCCN2Cc3cc(-c4ccc(/C=C5/NC(=S)NC5=O)s4)ccc3C2=O)CC1 [compound 133]
Second: CN1CCc2cc(-c3ccc(/C=C4/NC(=S)NC4=O)s3)ccc2C1=O [compound 169]
The IC50 of the first is higher: greater than 20 µM for the first, 2.33 µM for the second.

`O=C1NC(=S)N/C1=C/c1ccc(-c2ccc3c(c2)C(=O)NC3)s1` [compound 165] and `CN1Cc2ccc(-c3ccc(/C=C4/NC(=S)NC4=O)s3)cc2C1=O` [compound 166, (E,Z)-2-Methyl-6-(5-((5-oxo-2-thioxoimidazolidin-4-ylidene)methyl)thiophen-2-yl)isoindolin-1-one] are within 1.5-fold of each other in IC50: 1.38 µM for the first, 1.89 µM for the second.

Compared with `CN1CCc2ccc(-c3ccc(/C=C4/NC(=S)NC4=O)s3)cc2C1=O` [compound 170], `O=C1NC(=S)N/C1=C\c1cc(-c2ccc3c(c2)CNC3=O)cs1` [compound 204] is 1.6-fold lower in IC50: 4.76 µM for the first, 3 µM for the second.

Compared with `O=C1NC(=S)N/C1=C/c1ccc(-c2ccc3c(c2)CNC3=O)cc1` [compound 205], `O=C1NC(=S)N/C1=C\c1cccc(-c2ccc3c(c2)CNC3=O)c1` [compound 206] is 1.6-fold lower in IC50: 5.55 µM for the first, 3.44 µM for the second.

Compared with `O=C1NC(=S)N/C1=C/c1cc2ccc(-c3ccc4c(c3)CNC4=O)cc2[nH]1` [compound 208], `O=C1NC(=S)N/C1=C/c1cc2cc(-c3ccc4c(c3)CNC4=O)ccc2[nH]1` [compound 209] is 1.6-fold higher in IC50: 1.58 µM for the first, 2.5 µM for the second.

`O=C1NC(=S)N/C1=C/c1cc2ccc(-c3ccc4c(c3)CCNC4=O)cc2[nH]1` [compound 210] and `O=C1NC(=S)N/C1=C/c1cc2cc(-c3ccc4c(c3)CCNC4=O)ccc2[nH]1` [compound 211] are within 1.5-fold of each other in IC50: 1.66 µM for the first, 1.45 µM for the second.

`O=C1NC(=S)/C(=C/c2ccc3cc(-c4ccc5c(c4)CCNC5=O)ccc3n2)N1` [compound 212] gave an IC50 of 2.55 µM.
